Test results taken from ChEMBL document CHEMBL5131375, “Recent Developments in the Use of Kinase Inhibitors for Management of Viral Infections” (J Med Chem, 2022).

Tests used:
Dengue virus [1] = test: microbe, parasite or virus in culture
[2] = target: Receptor tyrosine-protein kinase erbB-2 (Homo sapiens, UniProt P04626)
Huh7.5.1 = test: Cytotoxicity against human Huh-7.5.1 cells at 0.9 uM; type: toxicity, cell-based; settings: huh7.5.1, 0.9 µM
in vitro [3] = settings: human, jurkat
in vitro [4] = settings: human, u-937
in vitro [5] = settings: human, ccrf-cem
[6] = Cytotoxicity against HMC3 cells; type: toxicity, cell-based; settings: human
[7] = target: Calcium/calmodulin-dependent protein kinase type II subunit gamma (Homo sapiens, UniProt Q13555); test: Inhibition of CAMK-II (unknown origin)
[8] = Cytotoxicity against human CEM-T4 cells; type: toxicity, cell-based
[9] = tested on: Human immunodeficiency virus 1; test: Antiviral activity against HIV-1 assessed as inhibition of Nef mediated replication; type: functional, organism-based
Murine coronavirus [10] = test: Antiviral activity against MHV; type: functional, organism-based
Murine coronavirus [11] = test: Antiviral activity against mCoV-68 infected in african green monkey Vero cells incubated for 7 days by counting number of plaque by crystal violet staining method; type: functional, organism-based; settings: Murine coronavirus, 68, Vero, 168 h
[12] = Cytotoxicity against mouse NIH3T3 cells; type: toxicity, cell-based
in vitro [13] = settings: human, hff
[14] = target: T1, Cyclin-dependent kinase 7 (Homo sapiens, UniProt P50613)
[15] = target: T1, Cyclin-dependent kinase 7; remark: listed apart in the source
Human betaherpesvirus 5 = test: microbe, parasite or virus in culture; type: functional, organism-based
Influenza A virus [16] = test: Antiviral activity against influenza A virus infected in human A549 cells assessed as inhibition of viral replication at 4 uM relative to control; type: functional; parameters: scale not given: the % may be the effect or the level left
Murine coronavirus [17] = test: Antiviral activity against MHV assessed as log reduction in virus progeny at 4 uM; type: functional
[18] = Cytotoxicity against golden hamster BSR cells; type: toxicity, cell-based, Mesocricetus auratus
[19] = tested on: Transmissible gastroenteritis virus; test: Antiviral activity against TGEV assessed as reduction in virus titre at 4 uM; type: functional
[20] = Cytotoxicity against pig PK-15 cells; type: toxicity, cell-based, Sus scrofa
[21] = tested on: Feline infectious peritonitis virus; test: Antiviral activity against FIPV assessed as log reduction in virus progeny at 4 uM; type: functional
[22] = tested on: Transmissible gastroenteritis virus; test: Antiviral activity against TGEV assessed as log reduction in virus progeny at 4 uM; type: functional
Lyssavirus rabies = test: microbe, parasite or virus in culture; type: functional, organism-based
[23] = Inhibition of PDGF (unknown origin); parameters: species or system Homo sapiens
[24] = tested on: Porcine epidemic diarrhea virus; test: Antiviral activity against PEDV assessed as log reduction in virus progeny at 4 uM; type: functional
[25] = target: Cyclin-dependent kinase 2 (Homo sapiens, UniProt P24941)
[26] = Cytotoxicity against human astrocyte cells; type: toxicity, cell-based
Zika virus [27] = test: microbe, parasite or virus in culture
[28] = Cytotoxicity against HEK293 cells; type: toxicity, cell-based; settings: human
Dengue virus [29] = test: Antiviral activity against DENV infected in HEK293 cells; type: functional, organism-based
Zika virus [30] = test: Antiviral activity against ZIKV MR766 infected in 1 hr pretreated rhesus monkey LLC-MK2 cells measured after 24 to 72 hrs; type: functional, organism-based
[31] = Cytotoxicity against human HCT-116 cells; type: toxicity, cell-based
Influenza B virus = test: Antiviral activity against influenza B virus assessed as log reduction of virus at 5 to 10 uM; type: functional; settings: dose 5-10 µM
[32] = Cytotoxicity against human HL-60 cells; type: toxicity, cell-based
Influenza A virus [33] = test: Antiviral activity against influenza A virus assessed as log reduction of virus at 5 to 10 uM; type: functional; settings: dose 5-10 µM
[34] = Cytotoxicity against human MCF7 cells; type: toxicity, cell-based
[35] = target: Protein kinase C beta type (Homo sapiens, UniProt P05771); test: Inhibition of PKCbeta2 (unknown origin)
Protein kinase C beta type, sequence (P05771 whole entry): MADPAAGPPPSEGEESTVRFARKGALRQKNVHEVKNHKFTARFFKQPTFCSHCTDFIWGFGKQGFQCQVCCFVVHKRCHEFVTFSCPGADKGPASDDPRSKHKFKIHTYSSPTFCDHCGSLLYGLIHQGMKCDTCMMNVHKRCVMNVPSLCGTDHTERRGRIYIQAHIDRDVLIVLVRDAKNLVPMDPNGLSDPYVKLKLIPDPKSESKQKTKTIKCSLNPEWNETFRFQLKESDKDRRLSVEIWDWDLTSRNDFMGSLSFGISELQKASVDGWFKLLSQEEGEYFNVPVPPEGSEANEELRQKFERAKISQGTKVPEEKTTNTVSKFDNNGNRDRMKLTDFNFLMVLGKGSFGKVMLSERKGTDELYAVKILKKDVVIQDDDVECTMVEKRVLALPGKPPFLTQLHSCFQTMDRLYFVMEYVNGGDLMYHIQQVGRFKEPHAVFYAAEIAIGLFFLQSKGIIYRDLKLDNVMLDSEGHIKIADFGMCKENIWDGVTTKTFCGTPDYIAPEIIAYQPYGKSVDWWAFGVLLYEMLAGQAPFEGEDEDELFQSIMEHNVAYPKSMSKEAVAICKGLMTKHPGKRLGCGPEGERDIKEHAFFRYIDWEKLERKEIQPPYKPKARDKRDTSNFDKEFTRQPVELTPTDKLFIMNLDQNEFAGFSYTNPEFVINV

T1 sequence (P50613 whole entry): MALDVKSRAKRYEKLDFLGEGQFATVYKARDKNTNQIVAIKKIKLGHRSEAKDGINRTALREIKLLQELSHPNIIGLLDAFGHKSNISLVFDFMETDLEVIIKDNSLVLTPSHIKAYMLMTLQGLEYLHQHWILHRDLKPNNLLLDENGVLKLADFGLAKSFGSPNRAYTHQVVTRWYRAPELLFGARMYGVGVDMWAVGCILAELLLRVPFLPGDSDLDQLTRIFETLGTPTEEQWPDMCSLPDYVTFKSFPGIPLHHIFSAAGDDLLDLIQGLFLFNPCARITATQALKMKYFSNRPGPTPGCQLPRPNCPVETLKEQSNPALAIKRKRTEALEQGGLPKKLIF
Receptor tyrosine-protein kinase erbB-2, sequence (P04626 whole entry): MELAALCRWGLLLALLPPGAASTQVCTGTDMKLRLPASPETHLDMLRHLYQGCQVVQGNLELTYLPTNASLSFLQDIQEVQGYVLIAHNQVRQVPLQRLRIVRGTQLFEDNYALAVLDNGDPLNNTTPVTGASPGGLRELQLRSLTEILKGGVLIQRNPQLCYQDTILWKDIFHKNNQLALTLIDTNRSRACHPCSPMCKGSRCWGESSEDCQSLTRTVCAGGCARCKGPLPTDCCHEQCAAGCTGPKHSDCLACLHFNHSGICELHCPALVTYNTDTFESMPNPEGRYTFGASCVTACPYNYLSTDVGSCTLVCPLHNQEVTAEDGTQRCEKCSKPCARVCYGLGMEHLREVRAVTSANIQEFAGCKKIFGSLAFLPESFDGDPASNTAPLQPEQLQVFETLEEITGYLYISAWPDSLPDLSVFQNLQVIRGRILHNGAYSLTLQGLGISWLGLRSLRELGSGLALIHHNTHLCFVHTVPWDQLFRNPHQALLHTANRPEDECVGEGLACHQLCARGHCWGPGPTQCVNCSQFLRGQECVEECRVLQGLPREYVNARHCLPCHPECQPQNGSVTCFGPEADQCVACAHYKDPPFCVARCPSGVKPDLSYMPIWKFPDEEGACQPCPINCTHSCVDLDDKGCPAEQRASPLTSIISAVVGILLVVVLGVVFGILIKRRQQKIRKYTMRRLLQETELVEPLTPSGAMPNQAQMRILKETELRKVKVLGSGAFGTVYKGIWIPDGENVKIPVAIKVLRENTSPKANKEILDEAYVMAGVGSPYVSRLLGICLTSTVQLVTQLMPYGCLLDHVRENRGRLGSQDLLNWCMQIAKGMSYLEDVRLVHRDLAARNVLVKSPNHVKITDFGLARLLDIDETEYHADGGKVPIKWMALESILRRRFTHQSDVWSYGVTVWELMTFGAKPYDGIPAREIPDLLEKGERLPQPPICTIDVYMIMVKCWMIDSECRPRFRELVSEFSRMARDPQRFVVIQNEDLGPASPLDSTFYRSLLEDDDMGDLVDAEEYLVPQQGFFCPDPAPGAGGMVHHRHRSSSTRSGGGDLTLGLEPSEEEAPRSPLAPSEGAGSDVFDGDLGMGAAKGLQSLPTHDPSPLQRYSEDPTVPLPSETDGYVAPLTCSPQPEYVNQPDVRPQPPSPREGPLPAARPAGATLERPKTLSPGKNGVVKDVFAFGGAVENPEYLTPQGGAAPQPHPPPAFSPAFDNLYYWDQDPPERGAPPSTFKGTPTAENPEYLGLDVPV
Calcium/calmodulin-dependent protein kinase type II subunit gamma, sequence (Q13555 whole entry): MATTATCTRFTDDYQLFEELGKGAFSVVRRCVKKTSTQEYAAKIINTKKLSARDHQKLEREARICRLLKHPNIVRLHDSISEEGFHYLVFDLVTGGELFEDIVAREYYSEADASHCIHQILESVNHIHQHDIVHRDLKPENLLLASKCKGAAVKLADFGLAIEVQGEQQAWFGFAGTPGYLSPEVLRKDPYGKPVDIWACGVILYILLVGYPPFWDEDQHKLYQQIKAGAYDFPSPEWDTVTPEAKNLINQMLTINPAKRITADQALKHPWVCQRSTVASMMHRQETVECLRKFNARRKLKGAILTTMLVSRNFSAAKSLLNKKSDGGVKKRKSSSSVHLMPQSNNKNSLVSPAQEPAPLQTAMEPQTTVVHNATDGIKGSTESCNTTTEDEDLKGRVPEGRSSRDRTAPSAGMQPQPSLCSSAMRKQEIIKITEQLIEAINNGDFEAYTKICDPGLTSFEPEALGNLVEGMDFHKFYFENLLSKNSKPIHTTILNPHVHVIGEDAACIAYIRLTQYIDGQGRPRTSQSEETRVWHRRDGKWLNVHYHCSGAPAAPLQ

For `CCN(CC)CC1CCN(c2ncc3ncnc(Nc4ccc(F)c(Cl)c4)c3n2)CC1`, the IC50 (Dengue virus [1]) was 900 nM, the IC50 [2] was 290 nM and the Activity (Huh7.5.1) was “Non-Toxic”.
For `O=C1Cc2c([nH]c3ccc([N+](=O)[O-])cc23)-c2ccccc2N1` [ALSTERPAULLONE], the CC50 (in vitro [3]) was over 1000 nM, the CC50 (in vitro [4]) was over 1000 nM and the CC50 (in vitro [5]) was over 1000 nM.
With `COc1ccc(S(=O)(=O)N(CCCC(=O)C2CCCCCC2)c2ccccc2)cc1` the CC50 [6] was over 12500 nM and the IC50 [7] was 790 nM.
For `NC(=S)n1nc(-c2ccc([N+](=O)[O-])cc2)c(/N=N/c2cccc(Cl)c2)c1O`, the CC50 [8] was over 10000 nM and the IC50 [9] was 300 nM.
`CC(C)=CCC[C@](C)(O)C1CC[C@]2(C)[C@@H]1[C@H](O)C[C@@H]1[C@@]3(C)CC[C@H](O[C@@H]4O[C@H](CO)[C@@H](O)[C@H](O)[C@H]4O[C@@H]4O[C@H](CO)[C@@H](O)[C@H](O)[C@H]4O)C(C)(C)[C@@H]3CC[C@]12C` (some centres not stated) showed an IC50 (Murine coronavirus [10]) of 10000 nM, an IC50 (Murine coronavirus [11]) of 10000 nM and a CC50 [12] of over 50000 nM.
`CC(C)c1cnn2c(NCc3ccccc3-n3cccn3)nc(OC3CCCNC3)nc12` (configuration not stated) gave a CC50 (in vitro [13]) of 6200 nM, an IC50 [14] of under 5 nM and an IC50 [15] of under 5 nM. The EC50 (Human betaherpesvirus 5) was 24 nM.
In the case of `CC(C)(C)c1cc(C=C(C#N)C#N)cc(C(C)(C)C)c1O` [TYRPHOSTIN A9], the Activity (Influenza A virus [16]) is reported as 50%, the “log(activity)” value (Murine coronavirus [17]) is reported as 2.3 and the CC50 [18] is reported as 150000 nM. For the same compound, the “log(activity)” value [19] was 3, the CC50 [20] was over 6000 nM and the “log(activity)” value [21] was 2.3. The “log(activity)” value [22] was 2.3, the EC50 (Lyssavirus rabies) was 900 nM and the IC50 [23] was 500 nM. For the same compound, the “log(activity)” value [24] was 2.3.
For `CCCc1cnc(NC(=O)[C@@H](C)c2ccc(NC(C)=O)cc2)s1`, the IC50 [25] was 31 nM, the CC50 [26] was over 10000 nM and the IC50 (Zika virus [27]) was 90 nM.
For `O=S(=O)(NCCNC/C=C/c1ccc(Br)cc1)c1cccc2cnccc12`, the IC50 (Dengue virus [1]) was 960 nM, the CC50 [28] was over 1000 nM and the IC50 (Dengue virus [29]) was 900 nM.
In the case of `CC(C)c1[nH]n(-c2c(Cl)cccc2Cl)c2nc(Cc3ccc(OCCO)cc3)nc(=O)c1-2`, the IC50 (Zika virus [30]) is reported as 27 nM, the IC50 [15] is reported as 71 nM and the CC50 [31] is reported as 40 nM. For the same compound, the IC50 (Zika virus [27]) was 90 nM.
In the case of `O=C1NC(=O)C(c2c[nH]c3ccccc23)=C1c1c[nH]c2ccccc12` [RO-316233], the “log(activity)” value (Influenza B virus) is reported as 1, the CC50 [32] is reported as over 8000 nM and the “log(activity)” value (Influenza A virus [33]) is reported as 1. For the same compound, the CC50 [34] was over 8000 nM and the IC50 [35] was 16 nM.
